# Measurements: US20030187261A1, “Purine derivatives, process for their preparation and use thereof” (priority 2000, published 2003)
# What was measured:
# [1] = tested on: T-lymphoblastic leukemia cell line CEM; experiment: MTT cytotoxicity assay, CEM; type: cell-based, human; details: Homo sapiens, 72 hours (TCS50 in the method)
# Summary of the method: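 Cells pre-incubated 24 h, then exposed to six 4-fold dilutions (top well concentration typically 266.7 μM) in duplicate for 72 h at 37 °C, 5% CO2. MTT read-out, SDS-solubilized formazan measured at 540 nm. TCS50, the concentration lethal to 50% of tumour cells, derived from dose-response curves.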
# normal human lymphocytes = experiment: concanavalin A induced lymphocyte proliferation, [3H]-TdR incorporation; type: cell-based; details: Homo sapiens, Lymphocyte, 72 hours, read-out: ED50 (the source's name)
# Summary of the method: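 Ficoll-isolated human peripheral blood mononuclear cells, stimulated with concanavalin A, exposed to six 4-fold compound dilutions (top well concentration 266.7 μM) for 72 h at 37 °C. Proliferation read as [3H]-TdR incorporation over 6 h by scintillation counting; ED50 taken from dose-response curves relative to control cpm.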
structure (smiles),measurement,setting,value
"CCCCCCNc1nc(NC(CO)c2ccccc2)c2ncn(C(C)C)c2n1 (centres unmarked) [P23, 2-(hexylamino)-6-(1-phenyl-2-hydroxyethylamino)-9-isopropylpurine]",IC50,[1],34 µM
same,EC50,normal human lymphocytes,56 µM
